For one assay, the target named is T1, M1 muscarinic receptor (Homo sapiens, UniProt P11229).
T1 construct: expressed in transfected cells; host or cells: CHO (M1-CHO)
T1 sequence (P11229 1-460): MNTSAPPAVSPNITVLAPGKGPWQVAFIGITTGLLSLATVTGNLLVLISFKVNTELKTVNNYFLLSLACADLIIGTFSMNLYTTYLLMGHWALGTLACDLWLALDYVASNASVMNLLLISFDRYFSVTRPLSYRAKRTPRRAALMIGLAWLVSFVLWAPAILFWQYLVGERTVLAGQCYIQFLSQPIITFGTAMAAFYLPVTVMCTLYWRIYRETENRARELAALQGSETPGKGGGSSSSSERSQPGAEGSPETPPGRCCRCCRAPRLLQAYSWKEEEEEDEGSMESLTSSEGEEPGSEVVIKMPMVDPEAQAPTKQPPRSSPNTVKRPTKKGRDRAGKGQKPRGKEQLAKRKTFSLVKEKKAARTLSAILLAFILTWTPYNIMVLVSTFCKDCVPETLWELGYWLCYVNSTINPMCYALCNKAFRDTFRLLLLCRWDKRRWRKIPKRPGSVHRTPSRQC
Briefly: Functional mobilization of intracellular calcium (FLIPR) in M1-CHO cells. Type of assay: cell-based. Conditions: Table 4; for Emax: 100% efficacy is the maximum response obtained with the Carbachol control; for M1 Activity: modulating M1 receptor. In a few lines: (§1)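 Measured via Fluo-3 fluorescence on a FLIPR, CHO cells with either muscarinic subtype received compound in 0.5% DMSO. Antagonism was assessed after 15 min pre-incubation followed by carbachol at each subtype's EC80; agonism from compound addition alone.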
Background: A change in cytosolic calcium serves as a functional read-out for many receptors and channels.

The next assay deals with T2, M4 muscarinic receptor (Homo sapiens, UniProt P08173).
T2 construct: expressed in transfected cells; host or cells: CHO (M4-CHO)
T2 sequence (P08173 1-479): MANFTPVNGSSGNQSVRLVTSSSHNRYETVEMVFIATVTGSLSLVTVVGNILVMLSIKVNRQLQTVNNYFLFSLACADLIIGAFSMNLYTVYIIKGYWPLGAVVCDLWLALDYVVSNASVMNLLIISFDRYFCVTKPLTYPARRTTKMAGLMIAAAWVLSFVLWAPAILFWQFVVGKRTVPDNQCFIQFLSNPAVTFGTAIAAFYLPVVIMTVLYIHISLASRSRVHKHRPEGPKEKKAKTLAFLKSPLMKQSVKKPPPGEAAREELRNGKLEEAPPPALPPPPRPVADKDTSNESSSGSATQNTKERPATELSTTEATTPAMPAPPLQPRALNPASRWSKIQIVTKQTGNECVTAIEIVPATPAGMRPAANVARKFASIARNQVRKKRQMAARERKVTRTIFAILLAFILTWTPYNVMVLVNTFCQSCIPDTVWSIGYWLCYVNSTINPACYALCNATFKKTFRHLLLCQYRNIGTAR
Briefly: Functional mobilization of intracellular calcium (FLIPR) in M4-CHO cells. Type of assay: cell-based. Conditions: Table 4; for Emax: 100% efficacy is the maximum response obtained with the Carbachol control; for M4 Activity: modulating M4 receptor. Put shortly: as §1

Turning to `CCOC(=O)N1C2CCC1CC(N1CCCC3(CC1)CN(C(C)=O)c1ccc(F)cc13)C2` (stereo not drawn) [compound 746], on M1 muscarinic receptor, the maximum response (Emax) – broadly, the greatest response seen or fitted, relative to the assay's reference – lay within 25 to 100% and the “M1 Activity” value is on record as “xxx (activity was measured to be less than 2.0 μM)”. Moreover, at M4 muscarinic receptor, the maximal effect (Emax) was in the range of 25 to 100% and the “M4 Activity” value is “xxx (activity was measured to be less than 2.0 μM)”.

On to `C#CCCOC(=O)N1C2CCC1CC(N1CCC3(CC1)CN(C(C)=O)c1ccccc13)C2` (stereo not drawn) [compound 747], for which, at M1 muscarinic receptor, the Emax lay within 25 to 100% and the “M1 Activity” value was “xxx (activity was measured to be less than 2.0 μM)”. In addition, on M4 muscarinic receptor, the Emax was 25 to 100% and the “M4 Activity” value was “xxx (activity was measured to be less than 2.0 μM)”.

Turning to `CCCOC(=O)N1CCCC(N2CCC3(CC2)CN(C(=O)N(C)C)c2ccc(F)cc23)CC1` (stereo not drawn) [compound 749], on M1 muscarinic receptor, the Emax lay within 25 to 100% and the “M1 Activity” value is “xxx (activity was measured to be less than 2.0 μM)”. For the same compound, on M4 muscarinic receptor, the maximal response (Emax) lay within 25 to 100% and the “M4 Activity” value is recorded as “xxx (activity was measured to be less than 2.0 μM)”.

For `CCOC(=O)N1CCC(N2CCC3(CC2)CN(C(=O)N(CC)CC)c2ccccc23)CC1` [compound 750], at M1 muscarinic receptor, the maximum response (Emax) was in the range of 25 to 100% and the “M1 Activity” value is “xxx (activity was measured to be less than 2.0 μM)”. Also, at M4 muscarinic receptor, the maximum response (Emax) was in the range of 25 to 100% and the “M4 Activity” value was “xxx (activity was measured to be less than 2.0 μM)”.

Regarding `CCOC(=O)N1CCC(N2CCC3(CC2)CN(C2CCCCC2=O)c2ccc(F)cc23)CC1` (stereo not drawn) [compound 751], on M1 muscarinic receptor, the maximum response (Emax) fell in the range of 25 to 100% and the “M1 Activity” value was “xxx (activity was measured to be less than 2.0 μM)”. Besides, at M4 muscarinic receptor, the Emax was 25 to 100% and the “M4 Activity” value is listed as “xxx (activity was measured to be less than 2.0 μM)”.

Take `CCOC(=O)N1CCC(N2CCC3(CC2)CN(c2cnccn2)c2ccc(F)cc23)CC1` [compound 752]: at M1 muscarinic receptor, the Emax lay in the range of 25 to 100% and the “M1 Activity” value was “xxx (activity was measured to be less than 2.0 μM)”. Moreover, on M4 muscarinic receptor, the maximum response (Emax) is 25 to 100% and the “M4 Activity” value is reported as “xxx (activity was measured to be less than 2.0 μM)”.

Consider `COC(=O)N1CCC(N2CCC3(CC2)CN(C(C)=O)c2ccccc23)CC1` [compound 753], for which, on M1 muscarinic receptor, the Emax was in the range of 25 to 100%; the “M1 Activity” value is “xx (activity was measured to be between 2.0 μM and 5.0 μM)”. On M4 muscarinic receptor, the Emax was in the range of 25 to 100%; the “M4 Activity” value was “xx (activity was measured to be between 2.0 μM and 5.0 μM)”.

Turning to `CCOC(=O)N1C2CCC1CC(N1CCC3(CC1)CN(C(C)=O)c1ccc(OC)cc13)C2` (stereo not drawn) [compound 754], on M1 muscarinic receptor, the Emax was in the range of 25 to 100% and the “M1 Activity” value is recorded as “xxx (activity was measured to be less than 2.0 μM)”. On M4 muscarinic receptor, the Emax was in the range of 25 to 100% and the “M4 Activity” value is recorded as “xxx (activity was measured to be less than 2.0 μM)”.

On to `CCN(CC)C(=O)N[C@H]1CC2(CCN(C3CC4CC[C@@H]3C4)CC2)c2ccccc21` (stereo partly drawn) [compound 755], for which, on M1 muscarinic receptor, the Emax was less than 25% and the “M1 Activity” value is recorded as “x (activity was measured to be greater than 5.0 μM)”. At M4 muscarinic receptor, the Emax was in the range of 25 to 100% and the “M4 Activity” value was “xxx (activity was measured to be less than 2.0 μM)”.

Turning to `CCOC(=O)N1CCC(N2CCC3(CC2)CN(C2CCCC2=O)c2ccc(F)cc23)CC1` (stereo not drawn) [compound 756], on M1 muscarinic receptor, the maximal response (Emax) is 25 to 100% and the “M1 Activity” value is “xxx (activity was measured to be less than 2.0 μM)”. In addition, at M4 muscarinic receptor, the maximal effect (Emax) lay in the range of 25 to 100% and the “M4 Activity” value is recorded as “xxx (activity was measured to be less than 2.0 μM)”.

`CC(=O)N1CC2(CCN(CC3CCN(C(=O)OC4CCC4)CC3)CC2)c2cc(C)ccc21` [compound 757]: on M1 muscarinic receptor, the maximum response (Emax) is less than 25% and the “M1 Activity” value is on record as “x (activity was measured to be greater than 5.0 μM)”. On M4 muscarinic receptor, the Emax is less than 25% and the “M4 Activity” value is recorded as “x (activity was measured to be greater than 5.0 μM)”.

In the case of `CC1(C)C(=O)c2ccccc2C12CCN([C@@H]1C[C@@H]3CC[C@H]1C3)CC2` [compound 758], at M1 muscarinic receptor, the maximal effect (Emax) was less than 25% and the “M1 Activity” value is “x (activity was measured to be greater than 5.0 μM)”. Also, at M4 muscarinic receptor, the Emax is less than 25% and the “M4 Activity” value is listed as “x (activity was measured to be greater than 5.0 μM)”.

Consider `CC(=O)N[C@H]1CC2(CCN(C3CCC(C(C)C)CC3)CC2)c2ccccc21` (stereo partly drawn) [compound 759], for which, at M1 muscarinic receptor, the maximal effect (Emax) is less than 25% and the “M1 Activity” value was “x (activity was measured to be greater than 5.0 μM)”. Further, at M4 muscarinic receptor, the maximal effect (Emax) was less than 25% and the “M4 Activity” value is reported as “x (activity was measured to be greater than 5.0 μM)”.

`COc1ccc(N2CCC(N3CCC4(CC3)CN(C(=O)N(C)C)c3ccc(F)cc34)CC2)nn1` [compound 760]: on M1 muscarinic receptor, the Emax lay within 25 to 100% and the “M1 Activity” value is listed as “x (activity was measured to be greater than 5.0 μM)”. At M4 muscarinic receptor, the Emax was in the range of 25 to 100% and the “M4 Activity” value is “xxx (activity was measured to be less than 2.0 μM)”.

In the case of `CC#CCOC(=O)N1CC[C@H](CN2CCC3(CC2)CN(C(=O)N(C)C)c2ccc(F)cc23)C1` [compound 761], at M1 muscarinic receptor, the Emax fell in the range of 25 to 100% and the “M1 Activity” value was “xxx (activity was measured to be less than 2.0 μM)”. Moreover, at M4 muscarinic receptor, the Emax lay within 25 to 100% and the “M4 Activity” value was “xxx (activity was measured to be less than 2.0 μM)”.

As to `Cc1ncc(N2CCC(N3CCC4(CC3)CN(C(=O)N(C)C)c3ccc(F)cc34)CC2)nc1C` [compound 762], at M1 muscarinic receptor, the maximum response (Emax) is 25 to 100% and the “M1 Activity” value was “xxx (activity was measured to be less than 2.0 μM)”. On M4 muscarinic receptor, the Emax was 25 to 100% and the “M4 Activity” value is recorded as “xxx (activity was measured to be less than 2.0 μM)”.

Turning to `CC(=O)N[C@H]1CCC2(CCN(CCC3=C(C)CCCC3(C)C)CC2)c2ccccc21` [compound 764], on M1 muscarinic receptor, the maximal effect (Emax) fell in the range of 25 to 100% and the “M1 Activity” value is “xxx (activity was measured to be less than 2.0 μM)”. In addition, at M4 muscarinic receptor, the Emax was less than 25% and the “M4 Activity” value is on record as “xxx (activity was measured to be less than 2.0 μM)”.

`CCOC(=O)N1CCC(N2CCC3(CC(=O)c4cc(F)ccc43)C2)CC1` (stereo not drawn) [compound 765]: at M1 muscarinic receptor, the Emax is 25 to 100% and the “M1 Activity” value is on record as “x (activity was measured to be greater than 5.0 μM)”. On M4 muscarinic receptor, the Emax was less than 25% and the “M4 Activity” value is recorded as “x (activity was measured to be greater than 5.0 μM)”.

For `O=C1CCCN1[C@H]1CCC2(CCN([C@@H]3CC4CC[C@H]3C4)CC2)c2ccccc21` [compound 766], on M1 muscarinic receptor, the Emax fell in the range of 25 to 100% and the “M1 Activity” value is reported as “xxx (activity was measured to be less than 2.0 μM)”. At M4 muscarinic receptor, the Emax is 25 to 100% and the “M4 Activity” value is listed as “xxx (activity was measured to be less than 2.0 μM)”.

As for `CN(C)C(=O)N1CC2(CCN(C3CCN(C(=O)c4ccc(F)cc4)CC3)CC2)c2cc(F)ccc21` [compound 767], at M1 muscarinic receptor, the maximum response (Emax) lay within 25 to 100% and the “M1 Activity” value is “x (activity was measured to be greater than 5.0 μM)”. For the same compound, at M4 muscarinic receptor, the maximum response (Emax) is less than 25% and the “M4 Activity” value was “x (activity was measured to be greater than 5.0 μM)”.

Take `CCOC(=O)N1CCC(N2CCC3(CC2)CN(C(C)=O)c2c(-c4ccc(C)cc4)cccc23)CC1` [compound 768]: at M1 muscarinic receptor, the maximal response (Emax) was in the range of 25 to 100% and the “M1 Activity” value is given as “x (activity was measured to be greater than 5.0 μM)”. For the same compound, on M4 muscarinic receptor, the Emax is less than 25% and the “M4 Activity” value is “x (activity was measured to be greater than 5.0 μM)”.

Take `CCOC(=O)N1CCC(N2CCC3(CC2)CN(C(C)=O)c2ccc(Br)cc23)CC1` [compound 769]: at M1 muscarinic receptor, the Emax was in the range of 25 to 100% and the “M1 Activity” value is “xxx (activity was measured to be less than 2.0 μM)”. Besides, at M4 muscarinic receptor, the Emax lay in the range of 25 to 100% and the “M4 Activity” value was “xxx (activity was measured to be less than 2.0 μM)”.

Turning to `COc1cccc(C(=O)N2CCC(N3CCC4(CC3)CN(C(=O)N(C)C)c3ccc(F)cc34)CC2)c1` [compound 770], at M1 muscarinic receptor, the Emax fell in the range of 25 to 100% and the “M1 Activity” value was “xxx (activity was measured to be less than 2.0 μM)”. Further, on M4 muscarinic receptor, the Emax is less than 25%; the “M4 Activity” value is “xx (activity was measured to be between 2.0 μM and 5.0 μM)”.

Take `COC(=O)N1CCC(N2CCC3(CC2)CN(C(C)=O)c2ccc(F)cc23)C1` (stereo not drawn) [compound 771]: on M1 muscarinic receptor, the Emax is less than 25% and the “M1 Activity” value is given as “x (activity was measured to be greater than 5.0 μM)”. Moreover, on M4 muscarinic receptor, the maximal effect (Emax) was less than 25% and the “M4 Activity” value is given as “x (activity was measured to be greater than 5.0 μM)”.

Values taken from US7786141B2 (Vertex Pharmaceuticals Incorporated, priority 2004, dated 2010).
